Values of other authors as cited in paper PMC7657096 (Medical Mycology, 2020).
Several values for one entry are separate records, joined by “and”; a condition that tells them apart may be missing. Identical values can stand only once. Like-named read-outs stand apart in the source and are kept apart here.

How the values were obtained:
[1] = test system: onychomycosis; settings: after 10 months following weekly application for 9 months
[2] = test system: onychomycosis; settings: after 48 weeks following daily application for 48 weeks; two values
[3] = test system: onychomycosis; settings: topical, applied for 52 weeks; two values
[4] = test system: onychomycosis
[5] = test system: onychomycosis; settings: topical solution applied daily for either 24 or 48 weeks
[6] = test system: onychomycosis; settings: after 12 or 24 weeks of oral terbinafine treatment

## CCC(C)(C)c1ccc(CC(C)CN2C[C@@H](C)O[C@@H](C)C2)cc1 (stereo partly shown) [amorolfine]
[1]
  mycological cure (negative culture and negative microscopy): 8%

## Cc1cc(C2CCCCC2)n(O)c(=O)c1 [ciclopirox]
[2]
  mycological cure (negative culture and negative microscopy): 29% and 36%

## C=C1CCN([C@H](C)[C@](O)(Cn2cncn2)c2ccc(F)cc2F)CC1 [efinaconazole]
[3]
  mycological cure: 53.4% and 55.2%

## OB1OCc2cc(F)ccc21 [tavaborole]
[4]; topical, applied for 52 weeks
  mycological cure: 31.1%
[4]; two phase III studies, daily topical treatment for 48 weeks, ref (57)
  negative culture: 87.0% and 85.4%

## CN(C/C=C/C#CC(C)(C)C)Cc1cccc2ccccc12 [terbinafine]
[5]
  mycological cure: 12.7–18.8%
[6]
  trial participants with negative culture after 24 weeks (168 days): approximately 80%
